Values of other authors in patent publication US11554190B2, “Nanocarriers for the delivery of active ingredients” (President and Fellows of Harvard College, priority 2017, dated 2023).
Like-named read-outs stand apart in the source and are kept apart here.

What was measured:
[1] = test system: pathogens on surfaces; settings: 5% w/v, wet approach
[2] = test system: surface deposited influenza; settings: 90 ppm of vapor phase H2O2, similar times of treatment
[3] = test system: Acinetobacter on surfaces; settings: peak hydrogen peroxide concentration 500-600 ppm
[4] = test system: bacteria; settings: same amount of time
[5] = test system: Listeria on lettuce; settings: vaporized from 10% w/v hydrogen peroxide solution

## OO [hydrogen peroxide]
[1]
  effectiveness against pathogens on surfaces: ineffective
[2]
  log reductions of surface deposited influenza: 5 log
[3]
  log reductions in the concentration of Acinetobacter on surfaces: 4 log
[4]; aqueous solution at 5% concentration
  log reduction: 2.2 log
[4]; aqueous solution at 10% concentration
  log reduction: 3.5 log
[5]
  log reduction in concentration of Listeria on lettuce: 3 log
